Measurements reported in patent US20040052922A1, “Nutritional and therapeutical preparations having antioxidant activity” (priority 2000, published 2004).

Columns and labels:
Type in all cases: in vivo, rat
[1] = tested on: lipoperoxides; assay: Lipoperoxides levels (malonyldialdehyde) in plasma, liver, brain and heart of rats on hypercaloric diet
Description: Rats received hypercaloric, hypertriglyceridemizing and hypercholesterolemizing diet. After twenty days of treatment, the effect of the compositions on the following parameters was evaluated: 1) lipoperoxides levels in plasma, liver, brain and heart; 80 Male rats, each weighing 150-200 g, were used. […] 20% casein; 3.5% mixture of oligoelements and mineral salts; 0.1% mixture of vitamins; 0.2% choline ditartrate; 2% cellulose; cholesterol 0.5%; 0.25% sodium cholate; 58.44% saccharose; 10.0% lard and 4.9% olive oil. […] Malonyldialdehyde was evaluated according to the procedure by K. Yagi et al., 1982, in “Lipid Peroxides in Biology and Medicine”, Academic Press, New York, pp. 324-340.

[2] = tested on: membrane of plasma platelets; assay: Membrane fluidity of plasma platelets (TMA-DPH fluorescent probe) in rats on hypercaloric, hyperlipidemizing diet; conditions: expressed as % compared with controls values at time 0; after 20 days of dietary treatment
Description: (§1) Rats received hypercaloric, hypertriglyceridemizing and hypercholesterolemizing diet. After twenty days of treatment, the effect of the compositions on the following parameters was evaluated: 80 Male rats, each weighing 150-200 g, were used. The animals were subdivided into 8 groups of 10 animals each: […] 20% casein; 3.5% mixture of oligoelements and mineral salts; 0.1% mixture of vitamins; 0.2% choline ditartrate; 2% cellulose; cholesterol 0.5%; 0.25% sodium cholate; 58.44% saccharose; 10.0% lard and 4.9% olive oil. […] 3rd group A: animals were treated with a polycosanols mixture (octacosanol=50%) of rice wax (PLC), animals received for 20 days the same diet as the controls, except that 0.5 g of rice wax polycosanols replaced in part a similar amount of olive oil (olive oil used: 4.4%). […] 5th group: treated with 1-piperoylpiperidine (P); animals received for 20 days the same diet as the controls, except that 0.025 g of 1-piperoylpiperidine replaced a similar amount of olive oil (olive oil used: 4.875%). […] Membrane fluidity of erythrocyte ghosts and plasma platelets was measured using TMA-DPH as fluorescent probe, according to the method by […]. et al., 1999, Thromb. Hoemost., 82 pp. 149.

[3] = tested on: membrane of erythrocyte ghosts; assay: Membrane fluidity of erythrocyte ghosts (TMA-DPH fluorescent probe) in rats on hypercaloric, hyperlipidemizing diet; conditions: expressed as % compared with controls values at time 0; after 20 days of dietary treatment
Description: as §1

[4] = Total cholesterol, HDL cholesterol and triglycerids plasma levels in rats on hypercaloric diet
Description: (§2) Rats received hypercaloric, hypertriglyceridemizing and hypercholesterolemizing diet. After twenty days of treatment, the effect of the compositions on the following parameters was evaluated: 4) total cholesterol and HDL cholesterol plasma levels; 5) total triglycerids plasma levels. 80 Male rats, each weighing 150-200 g, were used. The animals were subdivided into 8 groups of 10 animals each: […] 20% casein; 3.5% mixture of oligoelements and mineral salts; 0.1% mixture of vitamins; 0.2% choline ditartrate; 2% cellulose; cholesterol 0.5%; 0.25% sodium cholate; 58.44% saccharose; 10.0% lard and 4.9% olive oil. […] 3rd group A: animals were treated with a polycosanols mixture (octacosanol=50%) of rice wax (PLC), animals received for 20 days the same diet as the controls, except that 0.5 g of rice wax polycosanols replaced in part a similar amount of olive oil (olive oil used: 4.4%). […] 5th group: treated with 1-piperoylpiperidine (P); animals received for 20 days the same diet as the controls, except that 0.025 g of 1-piperoylpiperidine replaced a similar amount of olive oil (olive oil used: 4.875%).

[5] = Body weight of rats on hypercaloric diet
Description: as §2, with “2) body weight;” for “4) total cholesterol and HDL cholesterol plasma levels; 5) total triglycerids plasma levels.”

[6] = after 20 days of diet treatment
[7] = in brackets, control after 20 day diet = 100%

SMILES: O=C(/C=C/C=C/c1ccc2c(c1)OCO2)N1CCCCC1 [P, 1-piperoylpiperidine]
- MDA BRAIN ([1]; brain, after 20 day dietary treatment): 107 ± 5 n mols of malonyldialdehyde (MDA) per gram of tissue
- Percent change vs. controls (MDA BRAIN) ([1]; brain, vs control rats after 20 days of diet): −0.9%
- MDA HEART ([1]; heart, after 20 day dietary treatment): 44 ± 7 n mols of malonyldialdehyde (MDA) per gram of tissue
- Percent change compared with controls (MDA HEART) ([1]; heart, vs control rats after 20 days of diet): −2.2%
- MDA LIVER ([1]; liver, after 20 day dietary treatment): 43.5 ± 7.8 n mols of malonyldialdehyde (MDA) per gram of tissue
- Percent change vs. controls (MDA LIVER) ([1]; liver, vs control rats after 20 days of diet): −1.5%
- MDA PLASMA ([1]; plasma, after 20 day dietary treatment): 5.0 ± 0.3 n mols of malonyldialdehyde (M
- Percent change vs. controls (MDA PLASMA) ([1]; plasma, vs control rats after 20 days of diet): −1.9%
- membrane fluidity (plasma platelets) [2]: 70%
- membrane fluidity (erythrocyte ghosts) [3]: 73%
- HDL cholesterol [4, 6]: 29.3 ± 1.5 mg/dL
- Total cholesterol [4, 6]: 125.2 ± 12.5 mg/dL
- total triglycerids [4, 6]: 81.9 ± 8.7 mg/dL
- Total cholesterol, percent change vs control rats after 20 day diet [4, 7]: −0.7%
- total triglycerids, percent change vs control rats after 20 day diet [4, 7]: −0.7%
- body weight [5, 6]: 223 ± 16 g
- body weight, percent change vs control rats after 20 day diet [5, 7]: −0.4%
